In PubChem BioAssay AID1918930 (Molecular Pharmacology Branch, DTP, NCI, 2023):
pIC50: −log10 of the molar value. Active and inactive are the calls of the source. Rule for the calls: active = viability on the fitted dose curve at most 10% of control; inactive = the rest.

Tested on: 233499-124-R-J3-PDC complex spheroid viability, % test/control
Test: Anticancer human tumor 233499-124-R-J3-PDC patient-derived colon adenocarcinoma cell line growth inhibition
Conditions: for pIC50: curve of first compound; for viability, T/C: stronger effect = lower value
In short: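 Drug combinations with the LSD1 inhibitor iadademstat tested on tumor cells co-cultured as spheroids with endothelial cells and mesenchymal stem cells. Concentrations descended in half-log increments from clinical Cmax or 10 microM.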

[1] = second compound 0.1 µM, first compound 0.00316 µM
[2] = second compound 0.1 µM, first compound 0.01 µM
[3] = second compound 0.1 µM, first compound 0.0316 µM
[4] = second compound 0.1 µM, first compound 0.1 µM
[5] = second compound 0.316 µM, first compound 0.00316 µM
[6] = second compound 0.316 µM, first compound 0.01 µM
[7] = second compound 0.316 µM, first compound 0.0316 µM
[8] = second compound 0.316 µM, first compound 0.1 µM
[9] = second compound 1 µM, first compound 0.00316 µM
[10] = second compound 1 µM, first compound 0.01 µM
[11] = second compound 1 µM, first compound 0.0316 µM
[12] = second compound 1 µM, first compound 0.1 µM
[13] = second compound 3.16 µM, first compound 0.00316 µM
[14] = second compound 3.16 µM, first compound 0.01 µM
[15] = second compound 3.16 µM, first compound 0.0316 µM
[16] = second compound 3.16 µM, first compound 0.1 µM
[17] = second compound 10 µM, first compound 0.00316 µM
[18] = second compound 10 µM, first compound 0.01 µM
[19] = second compound 10 µM, first compound 0.0316 µM
[20] = second compound 10 µM, first compound 0.1 µM
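Throughout, for pIC50: spheroids exposed to agents for one week before readout.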
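Throughout, for viability, T/C: spheroids exposed to agents for one week before readout.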

With `CC[C@@]1(O)C(=O)OCc2c1cc1n(c2=O)Cc2cc3c(CN(C)C)c(O)ccc3nc2-1` + NC1CC1c1ccc(-c2cccc(O)c2)cc1 the pIC50 (second compound 0.1 µM) was less than 7.00, the pIC50 (second compound 0.316 µM) was less than 7.00 and the pIC50 (second compound 1 µM) was less than 7.00. The pIC50 (second compound 3.16 µM) was less than 7.00, the pIC50 (second compound 10 µM) was less than 7.00 and the viability, T/C (second compound 0.1 µM, first compound 0.000316 µM) was 109%. It also gave a viability, T/C (second compound 0.1 µM, first compound 0.001 µM) of 99%, a viability, T/C [1] of 81.8% and a viability, T/C [2] of 52.1%. The viability, T/C [3] was 73.5%, the viability, T/C [4] was 115% and the viability, T/C (second compound 0.316 µM, first compound 0.000316 µM) was 96.6%. The viability, T/C (second compound 0.316 µM, first compound 0.001 µM) was 90%, the viability, T/C [5] was 72.3% and the viability, T/C [6] was 71.4%. It also gave a viability, T/C [7] of 79.5%, a viability, T/C [8] of 107% and a viability, T/C (second compound 1 µM, first compound 0.000316 µM) of 86.7%. It also gave a viability, T/C (second compound 1 µM, first compound 0.001 µM) of 94%, a viability, T/C [9] of 62.1% and a viability, T/C [10] of 67.9%. The viability, T/C [11] was 57.3%, the viability, T/C [12] was 104% and the viability, T/C (second compound 3.16 µM, first compound 0.000316 µM) was 89.3%. It also gave a viability, T/C (second compound 3.16 µM, first compound 0.001 µM) of 96.3%, a viability, T/C [13] of 63.6% and a viability, T/C [14] of 68.3%. The viability, T/C [15] was 70%, the viability, T/C [16] was 94.1% and the viability, T/C (second compound 10 µM, first compound 0.000316 µM) was 77.7%. For the same molecule, the viability, T/C (second compound 10 µM, first compound 0.001 µM) was 67.9%, the viability, T/C [17] was 53.8% and the viability, T/C [18] was 53.6%. The viability, T/C [19] was 58.7% and the viability, T/C [20] was 93.5%.
`CCN(c1cc(-c2ccc(CN3CCOCC3)cc2)cc(C(=O)NCc2c(C)cc(C)[nH]c2=O)c1C)C1CCOCC1` + NC1CCC(NC2CC2c2ccccc2)CC1 gave a pIC50 (second compound 0.1 µM) of less than 5.52, a pIC50 (second compound 0.316 µM) of less than 5.52 and a pIC50 (second compound 1 µM) of less than 5.52. For the same molecule, the pIC50 (second compound 3.16 µM) was less than 5.52, the pIC50 (second compound 10 µM) was less than 5.52 and the viability, T/C (second compound 0.1 µM, first compound 0.00949 µM) was 99.9%. For the same molecule, the viability, T/C (second compound 0.1 µM, first compound 0.03 µM) was 117%, the outcome (second compound 0.1 µM, first compound 0.0949 µM) was “inactive” and the viability, T/C (second compound 0.1 µM, first compound 0.3 µM) was 121%. For the same molecule, the viability, T/C (second compound 0.1 µM, first compound 0.949 µM) was 101%, the viability, T/C (second compound 0.1 µM, first compound 3 µM) was 126% and the viability, T/C (second compound 0.316 µM, first compound 0.00949 µM) was 101%. The viability, T/C (second compound 0.316 µM, first compound 0.03 µM) was 110%, the viability, T/C (second compound 0.316 µM, first compound 0.0949 µM) was 113% and the viability, T/C (second compound 0.316 µM, first compound 0.3 µM) was 102%. For the same molecule, the viability, T/C (second compound 0.316 µM, first compound 0.949 µM) was 118%, the viability, T/C (second compound 0.316 µM, first compound 3 µM) was 135% and the viability, T/C (second compound 1 µM, first compound 0.00949 µM) was 80.9%. For the same molecule, the viability, T/C (second compound 1 µM, first compound 0.03 µM) was 77.9%, the viability, T/C (second compound 1 µM, first compound 0.0949 µM) was 80.4% and the viability, T/C (second compound 1 µM, first compound 0.3 µM) was 96.2%. For the same molecule, the viability, T/C (second compound 1 µM, first compound 0.949 µM) was 88.5%, the viability, T/C (second compound 1 µM, first compound 3 µM) was 122% and the viability, T/C (second compound 3.16 µM, first compound 0.00949 µM) was 75.5%. For the same molecule, the viability, T/C (second compound 3.16 µM, first compound 0.03 µM) was 95.2%, the viability, T/C (second compound 3.16 µM, first compound 0.0949 µM) was 85.8% and the viability, T/C (second compound 3.16 µM, first compound 0.3 µM) was 87.4%. It also gave a viability, T/C (second compound 3.16 µM, first compound 0.949 µM) of 76.2%, a viability, T/C (second compound 3.16 µM, first compound 3 µM) of 104% and a viability, T/C (second compound 10 µM, first compound 0.00949 µM) of 86%. It also gave a viability, T/C (second compound 10 µM, first compound 0.03 µM) of 68%, a viability, T/C (second compound 10 µM, first compound 0.0949 µM) of 69.4% and a viability, T/C (second compound 10 µM, first compound 0.3 µM) of 74.9%. It also gave a viability, T/C (second compound 10 µM, first compound 0.949 µM) of 83.5% and a viability, T/C (second compound 10 µM, first compound 3 µM) of 90.2%.
Work on `O=C(C=Cn1cnc(-c2cc(C(F)(F)F)cc(C(F)(F)F)c2)n1)NNc1cnccn1` + NC1CC1c1ccc(-c2cccc(O)c2)cc1 yielded a pIC50 (second compound 0.1 µM) of 6.09, a pIC50 (second compound 0.316 µM) of 6.17 and a pIC50 (second compound 1 µM) of 6.09. It also gave a pIC50 (second compound 3.16 µM) of 6.04, a pIC50 (second compound 10 µM) of 6.25 and a viability, T/C [1] of 102%. The viability, T/C [2] was 83.9%, the viability, T/C [3] was 95.7% and the viability, T/C [4] was 101%. For the same molecule, the viability, T/C (second compound 0.1 µM, first compound 0.316 µM) was 77.6%, the viability, T/C (second compound 0.1 µM, first compound 1 µM) was 44.3% and the viability, T/C [5] was 91.8%. For the same molecule, the viability, T/C [6] was 104%, the viability, T/C [7] was 97.2% and the viability, T/C [8] was 81.2%. The viability, T/C (second compound 0.316 µM, first compound 0.316 µM) was 73.5%, the viability, T/C (second compound 0.316 µM, first compound 1 µM) was 38.2% and the viability, T/C [9] was 67.3%. The viability, T/C [10] was 78.9%, the viability, T/C [11] was 90.9% and the viability, T/C [12] was 101%. The viability, T/C (second compound 1 µM, first compound 0.316 µM) was 67.3%, the viability, T/C (second compound 1 µM, first compound 1 µM) was 46% and the viability, T/C [13] was 84.1%. For the same molecule, the viability, T/C [14] was 102%, the viability, T/C [15] was 83.5% and the viability, T/C [16] was 94.3%. For the same molecule, the viability, T/C (second compound 3.16 µM, first compound 0.316 µM) was 72.5%, the viability, T/C (second compound 3.16 µM, first compound 1 µM) was 48.2% and the viability, T/C [17] was 73.5%. It also gave a viability, T/C [18] of 83.1%, a viability, T/C [19] of 78.2% and a viability, T/C [20] of 81.9%. The viability, T/C (second compound 10 µM, first compound 0.316 µM) was 61.7% and the viability, T/C (second compound 10 µM, first compound 1 µM) was 38%.
